Entries after “also recorded” stand apart in the source; their conditions may differ. Square brackets hold non-standard residues; d marks the D form. Ends that are not written are not given here. βVal = β-valine (β-amino acid form of Val); βIle = beta-form isoleucine

In general, IC50 refers to the concentration that gives 50% inhibition.

For assay [1], the system named is human cardiac fibroblasts. As to the kind of experiment: AT1R and AT2R mRNA expression in human cardiac fibroblasts (qPCR). It counts as cell-based. The settings on record: 5 ng/ml for 72 hours. How it is done:
FIG. 2: TGF-β1 differentially affects the mRNA expression of AT1R and AT2R in human cardiac fibroblasts. Quantitative qPCR data showing that both AT1R and AT2R are expressed in human cardiac fibroblasts. TGF-β1 (5 ng/ml for 72 hours) increased AT2R mRNA expression but not AT1R mRNA expression. Quantitative values were obtained from the threshold cycle (Ct) number. Target gene expression level was normalized against beta-actin mRNA expression for each sample and data was expressed relative to the control. Data expressed as mean±sem relative to untreated HCFs; *P<0.05 versus untreated control (t-test).
In general terms: Quantitative PCR measures a nucleic acid by following its amplification.

The test system of assay [2] is male FVB/N mice on high salt diet, liver. Kind of assay: High salt (5%) diet intervention model, liver. The settings on record: weeks 5-8, peptides 75 pmol/kg/min s.c., Cand 2 mg/kg/day, captopril 3 mg/kg/day. It counts as in vivo, mouse. How it is done: (§1) C) In the intervention (or reversal) model, male FVB/N mice were treated with selective AT2Rs agonists after the establishment of cardiovascular disease using a high salt diet, in order to reverse cardiovascular pathologies. In some experiments, the ACE inhibitor captopril (dose) or the ARB candesartan cilexetil (dose) were given for 4 weeks in drinking water. Organs examined included heart, kidney and liver and these were compared to either untreated mice or high salt-fed mice that were treated with saline.
(§2) Mice were placed on either a normal rodent diet (0.35% NaCl) which acted as control or a high salt diet (5% sodium in food chow) for 8 weeks. After 4 weeks, mice were also treated subcutaneously (via osmotic mini-pump) with either saline or an AT2R agonist (75 pmol/kg/min subcutaneously) for 4 weeks. Mice continued to be fed a high salt diet whilst receiving these treatments.
Liver sections used either picrosirius red staining or Masson's trichome staining as described above. Higher concentrations of picrosirius red were often used under polarized light microscopy. The liver was removed and sectioned with half of the liver placed in 10% formalin and the rest frozen in liquid nitrogen before being stored in ˜80° C. freezer for future use. Formalin fixed, paraffin embedded livers were sectioned at thickness of 4 μm and were stained with Masson's trichrome according to standard procedures for analysis of liver fibrosis. […] Sections were re-fixed in Bouin's solution for 1 hour at 56° C. to improve staining quality then rinsed in running tap water for 5-10 minutes to remove yellow colour. Following this, sections were stained in Weigert's iron hematoxylin working solution for 10 minutes. Rinsed in running warm tap water for 10 minutes. Washed in distilled water. Stained in Biebrich scarlet-acid fuchsin solution for 10-15 minutes.
Washed in distilled water. Differentiated in phosphomolybdic-phosphotungstic acid solution for 10-15 minutes or until collagen was no longer red. Sections were transferred directly (without rinse) to aniline blue solution and stained for 5-10 minutes. Rinsed briefly in distilled water and differentiated in 1% acetic acid solution for 2-5 minutes. Washed in distilled water. […] Mounted with DPX mounting medium. Quantification of liver fibrosis was performed using images captured with the Aperio scanner (Monash Histology Platform, Monash University), with ×5 magnification. Each liver section had 5 different fields of view photographed at this magnification. Percentage of interstitial and perivascular collagen was analysed and quantified using ImageJ 1.48 software (Java, NIH), and the percentage from 5 random fields of view were averaged for final percentage of collagen for that particular animal. All analysis of collagen expression was conducted in a blinded fashion.

Assay [3] relates to male FVB/N mice on high salt diet, heart. Kind of assay: High salt (5%) diet intervention model, heart. It counts as in vivo, mouse. In short, it runs like this:
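Male FVB/N mice fed 5% salt diet for 8 weeks (controls 0.35% NaCl); from week 4, AT2R agonist at 75 pmol/kg/min or saline given subcutaneously by osmotic minipump for 4 weeks on continued high salt. Heart collagen by picrosirius red, % interstitial staining averaged over eight fields; immunofluorescence for fibrosis/inflammation markers.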

Assay [4] in a line: Systolic blood pressure by tail-cuff in high salt-fed mice. Particulars: data not shown. It counts as in vivo, mouse. The method, then:
The incision area was sutured with 6/0 DY silk ([…] Ltd) and antibiotic powder applied ([…], Pfizer) followed by intramuscular injection of the analgesic Cartrophen (0.1 ml of a 1.5 mg/ml stock solution; Biopharm Australia). Systolic blood pressure (SBP) was measured using non-invasive tail-cuff plethysmography apparatus (MC4000 Blood Pressure Analysis System, Hatteras Instrument Inc) before drug treatment (week 0), and then fortnightly. At the end of the 8 week treatment period mice were weighed before being killed by overdose of isoflurane inhalation and cervical dislocation. […] To this end, modified Ang peptides of interest were dissolved in saline and delivered subcutaneously via an implanted osmotic minipump and systolic blood pressure (SBP) was measured fortnightly.

The test system of assay [5] is male FVB/N mice on high salt diet, kidney. Kind of assay: High salt (5%) diet intervention model, kidney. It counts as in vivo, mouse. The settings on record: 75 pmol/kg/min s.c., weeks 5-8. The method, then:
as §1, §2
To measure collagen deposition, frozen sections of heart, kidney or aorta (all 5 μm thickness) were air dried for 10 minutes and were brought through 3 times xylene (2 minutes each), and 3 times absolute alcohol washes before being rinsed in tap H2O for 30 seconds. Staining with an optimal concentration of picrosirius red (in this instance 0.05% picrosirius red diluted in saturated picric acid) was performed and left for an hour. Sections were then rinsed in water and differentiated in 0.01M HCl for 2 minutes, followed by dehydration via 3 times absolute alcohol washes. Then, slides were brought through 3 times xylene washes before being cover slipped according to standard histological techniques using DPX as the mounting medium. Images were taken under ×20 magnification, using bright field (Olympus, BX51) and circularized polarized light microscopy (DM IRB, Leica) while percentage of positive interstitial collagen staining per total field of view was quantified using ImageJ 1.46 software (Java, NIH), and averaged out from a total of eight views as the final percentage collagen content in a particular animal.
Kidney sections used either picrosirius red staining as described above or using Mason's Trichrome staining as described below.
Formalin fixed, paraffin embedded kidneys were sectioned at thickness of 4 μm and were stained with Masson's trichrome according to standard procedures for analysis of kidney fibrosis. […] Sections were re-fixed in Bouin's solution for 1 hour at 56° C. to improve staining quality then rinsed in running tap water for 5-10 minutes to remove yellow colour. Following this, sections were stained in Weigert's iron hematoxylin working solution for 10 minutes. Rinsed in running warm tap water for 10 minutes. Washed in distilled water. Stained in Biebrich scarlet-acid fuchsin solution for 10-15 minutes. Washed in distilled water. Differentiated in phosphomolybdic-phosphotungstic acid solution for 10-15 minutes or until collagen was no longer red. Sections were transferred directly (without rinse) to aniline blue solution and stained for 5-10 minutes. Rinsed briefly in distilled water and differentiated in 1% acetic acid solution for 2-5 minutes. Washed in distilled water. […] Mounted with DPX mounting medium.
Quantification of kidney fibrosis was performed using images captured with the Aperio scanner (Monash Histology Platform, Monash University), with ×5 magnification. Each kidney section had 5 different fields of view photographed at this magnification. Percentage of tubulointerstitial collagen was analysed and quantified using ImageJ 1.48 software (Java, NIH), and the percentage from 5 random fields of view were averaged for final percentage of collagen for that particular animal. All analysis of collagen expression was conducted in a blinded fashion.

Assay [6] shares this test system. Kind of assay: High salt (5%) diet intervention model, kidney. Particulars: 75 pmol/kg/min s.c., weeks 5-8. It counts as in vivo, mouse. The source holds these as a separate data set.
Assay [7] deals with T1, human Angiotensin II Receptor Type 2 (AT2R) (human, UniProt P50052 1-363).
T1 construct: whole, on cells; also endogenous on human cardiac fibroblasts (functional entries); also called AT2 receptor
T1 sequence (looked up): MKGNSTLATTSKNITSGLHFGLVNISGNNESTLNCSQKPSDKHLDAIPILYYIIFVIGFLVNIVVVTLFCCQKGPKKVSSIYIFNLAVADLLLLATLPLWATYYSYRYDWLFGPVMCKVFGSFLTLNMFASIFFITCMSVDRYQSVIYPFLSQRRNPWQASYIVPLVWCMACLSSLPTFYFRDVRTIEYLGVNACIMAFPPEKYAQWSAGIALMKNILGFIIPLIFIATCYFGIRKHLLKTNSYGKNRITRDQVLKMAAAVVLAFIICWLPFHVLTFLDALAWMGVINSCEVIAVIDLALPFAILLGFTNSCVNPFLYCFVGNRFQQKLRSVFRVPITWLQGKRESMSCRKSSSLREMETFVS
Kind of assay: AT2R over AT1R, from IC50s of competition radioligand binding; reference AT1R.
Experimental: (§3) For each experiment, each ligand concentration was tested in duplicate or triplicate, and each experiment was repeated at least 3 separate times.

The target in assay [8] is T1, human Angiotensin II Receptor Type 2 …. As to the kind of experiment: competition radioligand binding on HEK-293 cells with AT2R; competitor [125I]-Sar1Ile8Ang II.
Experimental: as §3
Assay [9] addresses T2, human Angiotensin II Receptor Type 1 (AT1R) (human, UniProt P30556 1-359).
T2 construct: whole, on cells; also endogenous on human cardiac fibroblasts (functional entry); also called AT1 receptor
T2 sequence (looked up): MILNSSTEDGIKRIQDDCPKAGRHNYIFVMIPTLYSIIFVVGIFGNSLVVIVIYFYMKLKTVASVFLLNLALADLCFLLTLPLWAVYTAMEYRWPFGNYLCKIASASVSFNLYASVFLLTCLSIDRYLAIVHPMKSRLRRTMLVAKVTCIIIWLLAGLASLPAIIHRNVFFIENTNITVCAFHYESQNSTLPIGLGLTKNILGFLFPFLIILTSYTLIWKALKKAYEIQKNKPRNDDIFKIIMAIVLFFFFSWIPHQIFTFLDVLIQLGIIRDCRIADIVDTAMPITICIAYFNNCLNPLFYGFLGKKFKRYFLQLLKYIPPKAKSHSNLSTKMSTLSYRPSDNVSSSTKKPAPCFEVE
As to the kind of experiment: competition radioligand binding on HEK-293 cells with AT1R; competitor [125I]-Sar1Ile8Ang II.
Experimental: as §3

Turning to “TGF-β1: pro-fibrotic agent (fibrogenic cytokine) used to stimulate human cardiac fibroblasts”, in assay [1], the “AT1R mRNA expression” value is “not” and the “AT2R mRNA expression” value was “increased”.
As to `CC[C@H](C)[C@@H](CC(=O)N[C@@H](Cc1c[nH]cn1)C(=O)N1CCC[C@H]1C(=O)N[C@@H](Cc1ccccc1)C(=O)O)NC(=O)[C@H](Cc1ccc(O)cc1)NC(=O)[C@@H](NC(=O)[C@H](CCCNC(=N)N)NC(=O)[C@@H](N)CC(=O)O)C(C)C` [βIle-Ang II, Asp-Arg-Val-Tyr-β-Ile-His-Pro-Phe], the “liver steatosis (Oil Red O)” value in [2] is “significantly reduced excess lipid accumulation”. The “liver fibrosis (picrosirius red, polarized light)” value in [2] (listed as 8-Ile^5-Ang II) is “reversed collagen accumulation to levels seen in normal salt group”; in [2] (listed as β-Ile^5-Ang II), “similarly inhibited the pro-fibrotic effects of high salt in the liver”. In addition, the “TGF-β1 protein in the heart (Western blot)” value in assay [3] (75 pmol/kg/min s.c., weeks 5-8) was “significantly lower TGF-β1 protein”. Also, the “myofibroblast differentiation in heart (α-SMA)” value in assay [3] (75 pmol/kg/min s.c., weeks 5-8) is “reduced myofibroblast differentiation”. Moreover, the “MMP-13 protein expression in heart (Western blot)” value in [3] (weeks 5-8, peptide 75 pmol/kg/min s.c., Cand 2 mg/kg/day, captopril 3 mg/kg/day) is listed as “normalised MMP-13 to levels observed in the normal salt group”. In assay [3] (weeks 5-8, peptide 75 pmol/kg/min s.c., Cand 2 mg/kg/day, captopril 3 mg/kg/day, listed as β-Ile^5-Ang II), the “macrophage infiltration/expression in heart (F4/80)” value is recorded as “reversed by all agents; also recorded: reduced macrophage infiltration/expression”. The “expression of P-IκBα (marker for NFκB activation) in heart” value in assay [3] (weeks 5-8, peptides 75 pmol/kg/min s.c., Cand 2 mg/kg/day, captopril 3 mg/kg/day, listed as β-Ile^5-Ang II) was “significantly reduced expression of P-IκBα”. Besides, in assay [3] (weeks 5-8 of high salt diet, peptides 75 pmol/kg/min s.c. mini-pump, Cand 2 mg/kg/day, captopril 3 mg/kg/day in drinking water, listed as β-Ile^5-Ang II), the “cardiac fibrosis (picrosirius red)” value is “reversed high salt-induced cardiac fibrosis”. Moreover, the “systolic blood pressure (SBP)” value in assay [4] is “did not alter SBP”. The “kidney tubulointerstitial fibrosis (Masson's trichrome)” value in [5] is “reversed high salt-induced tubulointerstitial fibrosis”. Also, the “macrophage infiltration in kidney (F4/80)” value in assay [6] is recorded as “reversed”.

B1: βIle-8-Ang III (peptide)
peptide: RVYIHP[βIle]-OH
notes: synthetic peptide; also called Arg-Val-Tyr-Ile-His-Pro-β-Ile
Take B1: the “Fold AT2R selectivity” value in [7] worked out at 1040 fold. The molecule further gave an IC50 in assay [8] of 9.6 nM.

B2: βVal-Trp-8-Ang III (peptide)
peptide: R[βVal]YIHPW
notes: synthetic peptide; also called Arg-β-Val-Tyr-Ile-His-Pro-Trp
With B2, the 50% inhibitory concentration (IC50) in assay [9] stood at 1210 nM.

For the origin of these results see patent publication US11331368B2, “Angiotensin receptor agonists and uses thereof” (Monash University, priority 2017, dated 2022).
